This experiment concerns the target glutathione S-transferase (GST-GSH binding). Kind of experiment: GST–glutathione interaction disruption – biochemical, multiplex beads, flow cytometry, HPSMTB buffer, profiling panel (AID 1324).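 For all read-outs here: glutathione beads loaded with GST-green fluorescent protein and no fluorescent Bim peptide.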 The note with it: multiplex bead flow cytometry, MCF; for percent span inhibition: active compounds read high, concentration not given here. (In flow cytometry, cells or beads pass a laser one at a time.)

The source made the active and inactive calls. The rule behind the calls is not given here.

Consider `COC(=O)Cc1ccc(NC(=S)N2CCN(c3cccc(O)c3)CC2)cc1`, for which the percent span inhibition result was “inactive”.
Take `O=C1NCCN1C(=O)N(c1ccccc1)c1ccccc1`: the percent span inhibition entry was “inactive”.
The same measure, in the same setting: then `Cc1ccc(-c2cc(-c3ccccc3Cl)c(C#N)c(N)n2)o1`, with “inactive”; and `CNC(=O)CC1C(=O)N(Cc2ccccc2)C(=S)N1NC(=O)c1cccc(F)c1` (stereo not given), with “inactive”; and `COC(=O)c1ccc(/C=N/NC(=O)CC(=O)NCc2cccnc2)cc1`, with “inactive”.
With `CCN1CCN(c2cc(C)c3cc(NC(=S)N4CCN(c5ccccc5)CC4)ccc3n2)CC1`, the percent span inhibition entry was “inactive”.
Same read-out and setting: the same measure for `CN=C(NC1CCCCC1)c1ccc(Cl)cc1`: “inactive”.
As for `Fc1ccccc1-n1cc(-c2ccccc2)[nH]c1=S`, the percent span inhibition result was “inactive”.
Still for that read-out and setting: then `Cc1nn(-c2ccc(Cl)cc2)c(Cl)c1/C=C(\C#N)C(N)=O`, with “inactive”.
Regarding `O=C(c1cnccn1)N1CCN(c2ccccc2F)CC1`, the percent span inhibition result was “inactive”.
Take `COc1cccc2c(SCC(=O)N/N=C/c3ccccc3)cc(C)nc12`: the percent span inhibition entry is “inactive”.
On to `CCOC(=O)CSC1=NC(=O)/C(=C/c2ccc(Br)cc2)S1`, for which the percent span inhibition entry was “inactive”.
On to `Cc1nnc(Sc2cc(NCCO)c([N+](=O)[O-])c3nonc23)s1`, for which the percent span inhibition entry was “inactive”.
For `CCN(CC)c1ccc(NC2=C(Cl)C(=O)c3ccccc3C2=O)cc1`, the EC50 result is “inactive”.
For `O=C1/C(=C\c2ccc(-c3ccccc3Cl)o2)SC(=S)N1CC1CCCO1` (stereo not given), the percent span inhibition result was “inactive”.
As to `CC(C)NS(=O)(=O)c1ccc(OCC(=O)Nc2ccc(F)cc2)cc1`, the percent span inhibition result was “inactive”.
As for `c1ccc2c(N3CCOCC3)nc(N3CCOCC3)nc2c1`, the percent span inhibition entry is “inactive”.
Same read-out and setting: the same measure for `CCOC(=O)c1c(NC(C)=O)sc2c(O)c(Br)cc(Br)c12`: “inactive”.
With `Cc1cc(N2CCN(C)CC2)nc2ccc(NC(=S)N3CCN(c4cccc(Cl)c4)CC3)cc12`, the percent span inhibition entry is “inactive”.
On the same count and under the same terms, then `Cc1ccc(S(=O)(=O)NC(=O)COc2ccccc2C)cc1`, with “inactive”; and `COc1cccc2c(SCC(=O)N/N=C/c3ccc(O)cc3O)cc(C)nc12`, with “inactive”.
Same read-out and setting: then `CC(=O)OCCCNc1cc(Sc2nc3ccccc3s2)c2nonc2c1[N+](=O)[O-]`, with “inactive”.
On the same count and under the same terms, then `CC(C)(C)NC(=O)COc1ccc(CNc2ccc3[nH]c(=O)[nH]c3c2)cc1`, with “inactive”.
In the case of `Cc1cc(NC(=O)CCSc2ccccc2)ccc1Br`, the percent span inhibition result was “inactive”.
`Cc1ccc(C)n1-c1ccc(N2CCOCC2)cc1`: the percent span inhibition result is “inactive”.
Still for that read-out and setting: then `CCOc1cc(C2Nc3cccc4cccc(c34)N2)ccc1O`, with “inactive”; and `Cc1ccc(C)c(/C=C/C(=O)c2ccccc(=O)c2O)c1`, with “inactive”; and `COc1ccc(NC(=O)COc2ncnc3ccccc23)cc1S(=O)(=O)N1CCOCC1`, with “inactive”.
As for `CN1CCc2cccc3c2[C@@H]1Cc1ccc(O)c(O)c1-3`, the EC50 result is “inactive”.
As for `Cn1c(=O)[nH]c(=O)c2c1nc(N1CCOCC1)n2CCSc1nc2ccccc2[nH]1`, the percent span inhibition entry was “inactive”.
As for `CCOC(=O)c1nc(Nc2ccc(Nc3ccccc3)cc2)c2ccccc2n1`, the percent span inhibition result was “inactive”.
Same read-out and setting: then `Cc1ccc(/C=C/C2=Cc3c(sc(NC(=O)CSc4n[nH]c(N)n4)c3C#N)C(C)(C)C2)o1`, with “inactive”; and `CCOc1cc(CNc2ccc(N(C)C)cc2)cc(Br)c1OCC(=O)NC(C)(C)C`, with “inactive”.
With `O=C(Nc1ccc(Cl)cn1)Nc1ccccc1F`, the percent span inhibition result is “inactive”.
Still for that read-out and setting: then `CCC(=O)OCCNc1cc(Sc2nc3ccccc3s2)c2nonc2c1[N+](=O)[O-]`, with “inactive”; and `O=C(NCCCN1CCCC1=O)NC1CCCCC1`, with “inactive”; and `COc1ccc(C2C(C#N)=C(C)NC3=C2S(=O)(=O)c2ccccc23)cc1` (stereo not given), with “inactive”.
Still for that read-out and setting: then `COc1cc(CNc2ccc3[nH]c(=O)[nH]c3c2)cc(Br)c1OCC(=O)NC(C)(C)C`, with “inactive”.
On the same count and under the same terms, the same measure for `COP(=O)(CC(=O)O)c1ccccc1` (stereo not given): “inactive”.
For the molecule `O=[N+]([O-])c1ccc(N2CCN(c3ccc(O)cc3)CC2)c(Cl)c1`, the percent span inhibition entry was “inactive”.
In the case of `N#Cc1ccc(N=c2ssnc2Cl)cc1`, the percent span inhibition result is “inactive”.
On the same count and under the same terms, then `CCOC(=O)N1CCC(c2cc(=O)n(-c3ccccc3)[nH]2)CC1`, with “inactive”.
For `CCN1CCN(c2cc(C)c3cc(NC(=S)N4CCN(c5ccc(F)cc5)CC4)ccc3n2)CC1`, the percent span inhibition entry is “inactive”.
Same read-out and setting: then `Fc1ccccc1/C=C1\CCCC2=C1NC(=S)NC2c1ccccc1F` (stereo not given), with “inactive”; and `COc1ccc(CCNC(=O)c2ccc3nc(-c4ccco4)c(-c4ccco4)nc3c2)cc1OC`, with “inactive”.
Turning to `COc1ccc(NC(=O)c2c(F)cccc2F)cc1S(=O)(=O)Nc1ccc(Br)cc1`, the percent span inhibition entry is “inactive”.
The same measure, in the same setting: the same measure for `CCOC(=O)c1ccc(N=c2ssnc2Cl)cc1`: “inactive”.
Take `C=CS(=O)c1sc(Cl)c(N2CCOCC2)c1[N+](=O)[O-]` (stereo not given): the percent span inhibition entry was “inactive”.
The same measure, in the same setting: the same measure for `N#CC(C#N)=C1C=CC=CN1/C(=C\c1ccco1)C(=O)c1ccccc1`: “inactive”.
On the same count and under the same terms, the same measure for `O=C(Nc1n[nH]c(C(F)(F)F)n1)C1CC1`: “inactive”.
Still for that read-out and setting: the same measure for `CC[n+]1c(/C=C/C=C/N(C(C)=O)c2ccccc2)sc2ccccc21`: “inactive”; for `Cc1cc(C)c2c(N)c3cccc(C)c3nc2n1`: “inactive”.
Regarding `O=C(COc1ccccc1)N1CCN(c2ncnc3c2cnn3-c2ccccc2)CC1`, the percent span inhibition result is “inactive”.
The same measure, in the same setting: then `O=C(CSc1ccc2nnc(-c3ccncc3)n2n1)Nc1nccs1`, with “inactive”; and `CN(CCc1ccccn1)C(=O)CCC1CCCN(C(=O)NC2CCCCC2)C1` (stereo not given), with “inactive”.
With `CCN=c1scc(C)n1/N=C/c1ccc(O)c(O)c1O`, the EC50 entry was “inactive”.
`O=[N+]([O-])c1c(NCCCO)cc(Sc2nc3ccccc3s2)c2nonc12`: the percent span inhibition entry is “inactive”.
Still for that read-out and setting: the same measure for `c1cncc(-c2nnc3n2N=C(c2cccs2)CS3)c1`: “inactive”.
Regarding `CN1CCN(c2ccc(N)cc2)CC1`, the EC50 entry is “inactive”.
Turning to `Cc1ccc(-n2nc(C)c(C(=O)O)n2)c(C)c1`, the percent span inhibition result was “inactive”.
On to `NCC(c1ccccc1)c1c[nH]c2ccccc12` (stereo not given), for which the percent span inhibition entry is “inactive”.
With `c1ccc(-c2nc(N3CCCCCC3)c3ccccc3n2)nc1`, the percent span inhibition entry is “inactive”.
As for `Cc1cc2n(c1)CCn1c(C)ccc1-2`, the percent span inhibition entry is “inactive”.
Still for that read-out and setting: the same measure for `O=C(c1cccc(Br)c1)N1CCN(c2cnn(-c3ccccc3)c(=O)c2Cl)CC1`: “inactive”.
On the same count and under the same terms, then `CCN(CC)c1ccc(Nc2nc(N3CCOCC3)c3ccccc3n2)cc1`, with “inactive”; and `Cn1c(CNc2nc(-c3ccccc3)cs2)nnc1SCC(=O)N1CCc2ccccc21`, with “inactive”.
For the molecule `CCN(CC)c1ccc(NC(=O)c2ccccc2Br)cc1S(=O)(=O)Nc1ccccc1OC`, the percent span inhibition result was “inactive”.
Take `CCOCCCNc1nc(=S)[nH]c2cc(OC)c(OC)cc12`: the EC50 result is “inactive”.
For the molecule `Clc1ccc(N=c2ssnc2Cl)nc1`, the percent span inhibition entry was “inactive”.
On the same count and under the same terms, the same measure for `NC(=O)c1c(NC(=O)C2CCCO2)sc2c1CCCCC2` (stereo not given): “inactive”; for `COc1ccc(-c2noc(COc3ccc4c(c3)OCO4)n2)cc1OC`: “inactive”.
Same read-out and setting: the same measure for `Cn1c(=O)c(C(=O)COC(=O)c2cc(-c3ccco3)nc3ccccc23)c(N)n(CC2CC2)c1=O`: “inactive”; for `O=C1N/C(=C/c2cccn2-c2ccccc2)C(=O)N1Cc1ccc(F)cc1`: “inactive”.
As to `Cc1cc(N/C(=N/S(=O)(=O)c2cc(F)ccc2F)c2ccccc2)n(-c2ccccc2)n1`, the percent span inhibition result is “inactive”.
Turning to `COc1cc(C2Nc3cccc4cccc(c34)N2)ccc1OC(C)=O`, the percent span inhibition result was “inactive”.
For `NC(=O)c1sc2nc3c(c(-c4ccco4)c2c1N)CCC3`, the EC50 result is “inactive”.
In the case of `CC(C)CNC(=O)c1cccc(NC(=O)c2ccc(Cl)c([N+](=O)[O-])c2)c1`, the percent span inhibition result is “inactive”.
On the same count and under the same terms, then `O=C(NC1=NCCS1)NC12CC3CC(CC(C3)C1)C2`, with “inactive”.
In the case of `O=S1(=O)N=C(N(CCO)/N=C/c2ccncc2)c2ccccc21`, the EC50 result was “inactive”.
As to `COc1cc(N=c2ssnc2Cl)c(OC)cc1Cl`, the percent span inhibition result was “inactive”.
For `Cc1cccc(NC(=S)N2CCn3cccc3C2c2cccnc2)c1` (stereo not given), the percent span inhibition result is “inactive”.
For `O=C(C1CCC(Cn2c(=S)[nH]c3ccccc3c2=O)CC1)N1CCN(c2ccccn2)CC1` (stereo not given), the percent span inhibition entry is “inactive”.
On to `CCc1cccc(CC)c1-n1c(-c2cccnc2)n[nH]c1=S`, for which the percent span inhibition result is “inactive”.
With `CNc1ccc(Br)cc(C(=O)/C=C/c2cc(OC)ccc2OC)c1=O`, the percent span inhibition result was “inactive”.
The same measure, in the same setting: then `Nc1cccc(-c2cn3cccnc3n2)c1`, with “inactive”; and `O=C(COc1ccccc1)Nc1ccc2c(c1)Cc1cc(NC(=O)COc3ccccc3)ccc1-2`, with “inactive”; and `O=C(C1=C(Nc2ccccc2)c2ccccc2S(=O)(=O)N1)c1ccccc1`, with “inactive”.
With `COc1ccc(OC)c(-n2c(-c3ccc(C)cc3)n[nH]c2=S)c1`, the percent span inhibition entry was “inactive”.
The same measure, in the same setting: then `CCC(CC)C(=O)Nc1cccc(SC)c1`, with “inactive”; and `CC1(C)Cc2c(ccc3ccccc23)/C(=C/C(=O)N2CCCCC2)N1`, with “inactive”.
